The results in this text go back to patent publication US20250270512A1, “ADDITIVE FOR UNDIFFERENTIATION MAINTAINING MEDIUM” (AJINOMOTO CO., INC., priority 2017, published 2025).

Entries after “also recorded” stand apart in the source; their conditions may differ.

What all share (type): cell-based
Assay [1] relates to human embryonic stem cells H9. The assay is described as follows: Proliferation promoting effect of L-tryptophan, cell coating rate by IncuCyte, H9. As to conditions: mTeSR1 medium, final 44-1408 μM, 24-120 hr. The protocol:
(§1) Then, the proliferation promoting effect of L-tryptophan was evaluated using other strain 253G4 of human induced pluripotent stem cell (iPS cell) and human embryonic stem cell H9 strain. As the medium, mTeSR1 (STEM CELL Technologies Inc.: 05850) was used and culturing was performed under 5% CO2/37° C. conditions.
(§2) L-tryptophan (Sigma-Aldrich Co. LLC: T8941) was added to mTeSR1 medium (STEM CELL Technologies Inc.: 05850) at a given concentration, used for culture and the effect thereof was examined.
(§3) L-tryptophan (Sigma-Aldrich Co. LLC: T8941) was added at a final concentration of 44, 176, 352, 704, 1408 μM to mTeSR1 medium and the proliferation promoting effect of L-tryptophan was examined using the prepared medium. A 6 well plate coated with Matrigel (Japan Becton, Dickinson and Company) as a basement membrane matrix was prepared and 40,000 253G4 cells and 10,000 H9 cells were single cell seeded per well. The next day of cell seeding, evaluation was performed by replacing the medium with the medium prepared as mentioned above. The culture period was set to 6 days, the time of L-tryptophan addition was set to 0 and the cell coating rate was measured using IncuCyte at 24, 48, 72, 96 and 120 hr later. As the medium to be used when seeding, a medium without addition of Y-27632 at a final concentration of 10 μM was used and culturing was performed.

For assay [2], the system named is human induced pluripotent stem cells 201B7. The assay is described as follows: Proliferation promoting effect of L-tryptophan, cell coating rate by IncuCyte, 201B7. As to conditions: final 44-1408 μM, 24-120 hr after addition. The protocol: First, the proliferation promoting effect of L-tryptophan on induced pluripotent stem cells (iPS cells) was evaluated using 3 kinds of commercially available media. As the human iPS cell, 201B7 strain purchased from iPS Academia Japan, Inc. was used and cultured under the conditions of 5% CO2/37° C.
L-tryptophan (Sigma-Aldrich Co. LLC: T8941) was added to the media of Essential-8 (Life Technologies Inc.: A1517001), mTeSR1 (STEM CELL Technologies Inc.: 05850), TeSR2 (STEM CELL Technologies Inc.: 05860) at a given concentration, used for culture and the effect thereof was examined.
as §3, with “Essential-8, mTeSR1, TeSR2 media” for “mTeSR1 medium”, “media.” for “medium.”, “13,000” for “40,000 253G4 cells and 10,000 H9”, “using” for “by replacing the medium with”

In assay [3] the test system is human induced pluripotent stem cells 253G4. The assay is described as follows: Proliferation promoting effect of L-tryptophan, cell coating rate by IncuCyte, 253G4. The note with it: mTeSR1 medium, final 44-1408 μM, 24-120 hr. On the procedure:
as §1, §2, §3

The test system of assay [4] is human iPS cell 201B7 strain. The experiment in a line: Expression of undifferentiated marker after addition of high concentration of L-tryptophan. As to conditions: data not shown.
The subject of assay [5] is human embryonic kidney cell line HEK293T cells. The assay is described as follows: Proliferation promoting effect of L-tryptophan, cell coating rate by IncuCyte, HEK293T. The note with it: 293T; DMEM with 10% fetal bovine serum; final 44-1408 μM; 24-120 hr. On the procedure:
Next, the proliferation promoting effect of L-tryptophan was evaluated using human embryonic kidney cell line HEK293T cells. As the medium, DMEM medium (Thermo Fisher Scientific K. K.: 11965) added with 10% fetal bovine serum was used and culturing was performed under 5% CO2/37° C. conditions.
L-tryptophan (Sigma-Aldrich Co. LLC: T8941) was added at a given concentration to DMEM medium (Thermo Fisher Scientific K.K.: 11965) added with 10% fetal bovine serum, used for culture and the effect thereof was examined.
L-tryptophan (Sigma-Aldrich Co. LLC: T8941) was added at a final concentration of 44, 176, 352, 704, 1408 μM to DMEM medium (Thermo Fisher Scientific K.K.: 11965) added with 10% fetal bovine serum and the proliferation promoting effect of L-tryptophan was examined using the prepared medium. A 6 well plate was prepared and 10,000 cells were single cell seeded per well. The next day of cell seeding, evaluation was performed by replacing the medium with the medium prepared as mentioned above. The culture period was set to 6 days, the time of L-tryptophan addition was set to 0 and the cell coating rate was measured using IncuCyte at 24, 48, 72, 96 and 120 hr later.

In assay [6] the test system is human induced pluripotent stem cells 201B7. The experiment in a line: Proliferation promoting effect of L-tryptophan metabolites in mTeSR1, cell coating rate by IncuCyte, 201B7. The note with it: mTeSR1 medium, final 50, 100, 200, 500, 1000 μM, 0-120 hr. On the procedure:
L-kynurenine (Sigma-Aldrich Co. LLC: […]) was added at a final concentration of 50, 100, 200, 500, 1000 μM to mTeSR1 medium and the proliferation promoting effect was examined using the prepared medium. Y-27632 was added at a final concentration of 10 μM for 2 days after seeding. As a basement membrane matrix, Matrigel (Japan Becton, Dickinson and Company) was applied on a 6 well plate and 20,000 cells were single cell seeded per well. Two days after the cell seeding, evaluation was performed using the medium free of Y-27632 and prepared as mentioned above. The time of L-kynurenine addition was taken as 0 and the cell coating rate was measured using IncuCyte at 0, 24, 48, 72, 96 and 120 hr later. […] Kynurenic acid (Sigma-Aldrich Co. LLC: […]) was added at a final concentration of 50, 100, 200, 500, 1000 μM to mTeSR1 medium and the proliferation promoting effect was examined using the prepared medium. Y-27632 was added at a final concentration of 10 μM for 2 days after seeding. As a basement membrane matrix, Matrigel (Japan Becton, Dickinson and Company) was applied on a 6 well plate and 20,000 cells were single cell seeded per well. […] The time of kynurenic acid addition was taken as 0 and the cell coating rate was measured using IncuCyte at 0, 24, 48, 72, 96 and 120 hr later.

As for `NC(Cc1c[nH]c2ccccc12)C(=O)O` [L-tryptophan, 2-amino-3-(indolyl)propionic acid], the “cell coating rate (proliferation promoting effect)” value (shortened to “cell coating rate”) is reported as “concentration-dependent proliferation promoting effect of L-tryptophan was also confirmed; also recorded: showed an L-tryptophan concentration-dependent effect of promoting proliferation” in assay [1]; “showed a proliferation promoting effect in an L-tryptophan concentration dependent manner; also recorded: showed an L-tryptophan concentration-dependent effect of promoting proliferation” in assay [2] (Essential-8 medium); “showed a proliferation promoting effect in an L-tryptophan concentration dependent manner; also recorded: showed an L-tryptophan concentration-dependent effect of promoting proliferation” in assay [2] (TeSR2 medium); “showed a proliferation promoting effect in an L-tryptophan concentration dependent manner; also recorded: showed an L-tryptophan concentration-dependent effect of promoting proliferation” in assay [2] (mTeSR1 medium); “concentration-dependent proliferation promoting effect of L-tryptophan was also confirmed; also recorded: showed an L-tryptophan concentration-dependent effect of promoting proliferation” in assay [3]; “concentration-dependent proliferation promoting effect of L-tryptophan was not confirmed; also recorded: did not show an L-tryptophan concentration-dependent effect of promoting proliferation” in assay [5]. For the same molecule, in assay [4], the “expression of undifferentiated marker (OCT, Nanog, alkaline phosphatase)” value is “not influenced”.
Consider `O=C(O)c1cc(=O)c2ccccc2[nH]1` [kynurenic acid], for which the “cell coating rate” value in assay [6] was “showed a cell proliferation promoting effect in the kynurenic acid 50-500 μM addition group”.
For the molecule `Nc1ccccc1C(=O)C[C@H](N)C(=O)O` [L-kynurenine], in assay [6], the “cell coating rate” value was “showed a cell proliferation promoting effect in the L-kynurenine 50-500 μM addition group”.
